The values that follow come from PubChem BioAssay AID1996.

≈ marks a conversion by molar mass, not a printed value.

For the data set the following is noted: buffer; pH 7.4; 200.0 µM.
As to `C=CCNC(=O)c1ccc2c(c1)N(CC)C(=O)c1ccccc1S2`, the kinetic solubility is > 50.8 µg/mL.

Consider `Nc1n[nH]c(N)c1N=Nc1ccc(F)cc1`, for which the solubility (kinetic) was > 33 µg/mL.

Regarding `CCc1ccc2nc(N3CCN(C(=O)C(C)(C)C)CC3)sc2c1`, the kinetic solubility worked out at 2 µg/mL (≈ 6.03 µM).

As to `CCN(Cc1ccncc1)Cc1c(O)ccc2ccccc12`, the solubility (kinetic) was found to be 31.1 µg/mL (≈ 106 µM).

Compound `CCOc1ccccc1NC(=O)COc1ccc2ccc(=O)oc2c1` came in with a solubility (kinetic) of 0.9 µg/mL (≈ 2.65 µM).

Compound `NC(=O)C(Cc1ccccc1)NC(=O)C12CC3CC(CC(C3)C1)C2` (centres undefined) gave a solubility (kinetic) of 48.1 µg/mL (≈ 147 µM). Compared with the last compound, the solubility kinetic is about 53-fold higher.

In the case of `O=C1Nc2ccc3sc4ccccc4c3c2C1=O`, the solubility (kinetic) was 0.6 µg/mL (≈ 2.37 µM). This solubility kinetic lies about 80-fold lower than the previous one.

Regarding `Cc1cc(C)cc(NC(=O)CN2CCN(C(=O)C3CCCO3)CC2)c1` (centres undefined), the kinetic solubility was > 51.8 µg/mL.

The compound `CC1(c2ccc(Cl)cc2)NC(=O)N(CC(=O)N2CCc3ccccc32)C1=O` (centres undefined) had a solubility (kinetic) of 1.5 µg/mL (≈ 3.91 µM).

`CC(=O)Nc1ccc(C(=O)COC(=O)C2CCCCC2)c(F)c1` returned a kinetic solubility of 10.7 µg/mL (≈ 33.3 µM).

On to `c1ccc(CCOn2ccnc2)cc1`, for which the kinetic solubility is > 28.2 µg/mL.

For the compound `C=C(c1ccccc1O)n1ccnc1`, the solubility (kinetic) was > 27.9 µg/mL.

As for `COc1ccc(NC(=O)c2cc3cc(C)ccc3n2C)c(OC)c1`, the kinetic solubility came out at 2.7 µg/mL (≈ 8.32 µM).

The compound `O=C(NCCc1ccc(Cl)cc1)c1ccc2c(c1)OCCO2` showed a kinetic solubility of 0.8 µg/mL (≈ 2.52 µM).

Compound `CN(Cc1ccccc1C#N)S(=O)(=O)c1cccs1` yielded a solubility (kinetic) of 34.8 µg/mL (≈ 119 µM).

`CC(C)(C)CN1CCN(CCCc2ccccc2)C(CCO)C1` (centres undefined) yielded a kinetic solubility of 43.5 µg/mL (≈ 137 µM). The solubility kinetic values of the last two compounds are within 1.5-fold of each other.

Regarding `O=C(Nc1cccc2cccnc12)c1cccc(Cl)c1`, the kinetic solubility was 1.5 µg/mL (≈ 5.31 µM).

Consider `Nc1ccccc1C(=O)NCc1ccco1`, for which the solubility (kinetic) was > 32.4 µg/mL.

Compound `Cc1cc(F)ccc1NC(=S)NC1CCCC1` returned a solubility (kinetic) of 37.2 µg/mL (≈ 147 µM).

For the compound `CCOC(=O)CNC(=S)SC`, the solubility (kinetic) came out at 21.8 µg/mL (≈ 113 µM).

As to `CC(Oc1cccnc1[N+](=O)[O-])C(=O)N1CCc2ccccc21` (centres undefined), the solubility (kinetic) is > 47 µg/mL.

`Cn1c(Nc2ccc(F)cc2)nc2ccccc21` gave a solubility (kinetic) of 28 µg/mL (≈ 116 µM).

The compound `O=c1c2ccccc2ncn1Cc1ccccc1` showed a solubility (kinetic) of 31.5 µg/mL (≈ 133 µM). This solubility kinetic and that of the compound before are within 1.5-fold of each other.

Take `CCNC(=O)C(C)NC(=O)C1=NN(c2ccccc2)C(=O)CC1` (centres undefined): the kinetic solubility was > 47.5 µg/mL.

`O=C(NCCCl)c1ccc(OCc2ccccc2)cc1Cl`: the solubility (kinetic) came to 37 µg/mL (≈ 114 µM).

In the case of `CCN(CC)CCC(O)(c1ccccc1)C1CCCCC1` (centres undefined), the solubility (kinetic) worked out at 24.3 µg/mL (≈ 83.9 µM).

Take `Cc1cc(C(=O)Nc2ccc(Cl)cc2)c(C)n1Cc1cccs1`: the solubility (kinetic) turned out to be 2.7 µg/mL (≈ 7.83 µM).

In turn, `Cc1cccc(N2CCN(CC(=O)NCc3ccc(Cl)cc3)CC2)c1C` registered a solubility (kinetic) of 1.6 µg/mL (≈ 4.3 µM). This solubility kinetic is about 1.7-fold lower than that of the compound before.

As to `O=[N+]([O-])C1=CC=C2C(=NC3(CCCCC3)N2O)C1=NCCO`, the solubility (kinetic) is > 45.9 µg/mL.

The compound `COc1ccc(/C(C)=N\O)cc1OC` came in with a kinetic solubility of 16.9 µg/mL (≈ 86.6 µM).

For the compound `CCn1cnc2cc([N+](=O)[O-])ccc21`, the solubility (kinetic) is > 28.7 µg/mL.

In turn, `O=C1CSC(c2ccc([N+](=O)[O-])cc2)N1c1ccccc1` (centres undefined) registered a kinetic solubility of 42 µg/mL (≈ 140 µM).

For the compound `Nc1ccc(CN2CCOCC2)cc1`, the solubility (kinetic) was > 28.8 µg/mL.

As to `CC1COc2ccccc2N1C(=O)c1cccnc1Cl` (centres undefined), the kinetic solubility was > 43.3 µg/mL.

In turn, `CCOC(=O)Cn1c2ccc(C)cc2c2nc(C)sc21` displayed a solubility (kinetic) of 38.3 µg/mL (≈ 133 µM).

`O=C(OCCN=C1NS(=O)(=O)c2ccccc21)c1cccs1` returned a kinetic solubility of 2.5 µg/mL (≈ 7.43 µM).

Compound `CN(c1ccccc1)c1nc(N)c([N+](=O)[O-])c(N2CCCCCC2)n1` registered a solubility (kinetic) of 2.6 µg/mL (≈ 7.59 µM). The solubility kinetic values of the last two compounds are within 1.5-fold of each other.

`Cc1cc(SC(C)C(=O)O)nc2ccccc12` (centres undefined): the kinetic solubility was > 37.1 µg/mL.

Consider `COc1cc(SC)ccc1C(=O)Nc1ccc(C)cc1`, for which the kinetic solubility was found to be 1.6 µg/mL (≈ 5.57 µM).

`CC1=C(C(=O)Nc2ccc(C(=O)NCCC(C)C)cc2)SCCO1` registered a solubility (kinetic) of 46.3 µg/mL (≈ 133 µM). Against the preceding compound, the solubility kinetic is about 29-fold higher.

Turning to `Cc1ccc(C2=CSC3=NS(=O)(=O)CCN23)cc1`, the solubility (kinetic) was > 42.1 µg/mL.

On to `COc1ccc(NC(=S)Nc2ccccc2)c(OC)c1`, for which the kinetic solubility is > 43.3 µg/mL.

As to `CCOC(=O)c1c(NC(=O)COC(=O)c2cnccn2)sc(C)c1C`, the kinetic solubility came out at 16.8 µg/mL (≈ 46.2 µM).

Consider `CC1CC1C(=O)Nc1cc(C(F)(F)F)ccc1N1CCOCC1` (centres undefined), for which the solubility (kinetic) came to 40.9 µg/mL (≈ 125 µM).

`Cc1c(-c2ccc(Br)cc2)[n+](=O)c2c(n1[O-])CCCC2`: the kinetic solubility is > 50.3 µg/mL.

With `Cc1ccc(C(=O)OCC(=O)N2C(C)CCCC2C)s1` (centres undefined), the kinetic solubility stood at 28.2 µg/mL (≈ 95.5 µM).

For the compound `O=c1[nH]c2ccccc2n1C1=CCNCC1`, the solubility (kinetic) is > 32.3 µg/mL.

`CCNC(=O)NC(=O)CN(C)c1ccccc1`: the kinetic solubility was > 35.3 µg/mL.

As to `CC(=O)c1cccc(NC(=O)CC2CCCC2)c1`, the solubility (kinetic) is > 36.8 µg/mL.

For the compound `CCOc1ccc(N2C(=O)Cc3ccccc3C2=O)cc1`, the kinetic solubility stood at 26.9 µg/mL (≈ 95.6 µM).

For the compound `O=C(Nc1ccc(F)cc1)c1cc(-c2ccccc2)no1`, the kinetic solubility is < 0.3 µg/mL.

For the compound `CCOC(=O)CC(c1ccc(N)cc1)n1c(C)ccc1C` (centres undefined), the kinetic solubility stood at 20.8 µg/mL (≈ 72.6 µM).

With `Clc1cccc(-c2csc(Nc3cccnc3)n2)c1`, the solubility (kinetic) is < 0.2 µg/mL.

`OCCCNC(=S)Nc1ccc2nccnc2c1`: the kinetic solubility is > 39.3 µg/mL.

By solubility (kinetic) is commonly meant solubility judged after dilution from a stock solution rather than from solid.
